One may read the speed of sound as the propagation velocity of pressure waves in the medium.

SMILES strings stand for the structures. Values joined by “and” are separate entries in the source; they are usually repeats but may differ in a detail not shown here. Identical values can stand only once. ± gives the expanded uncertainty stated by the source.

This is an account of results in the NIST ThermoML archive (doi:10.1016/j.jct.2010.10.021).

The nature of the data set: xn = mol fraction of the nth substance listed. The following applies: 100 kPa, Liquid, Frequency=5 MHz, Single path-length method, x1 = 0.7.

On to `[F-].[Li+]` [lithium fluoride] + [Br-].[K+], for which the speed of sound is, setting by setting: (1243 K) 1408 ± 28 m/s; (1254 K) 1394 ± 28 m/s; (1260 K) 1385 ± 28 m/s.

As to `[F-].[Li+]` [lithium fluoride] + [Cl-].[Cs+], the speed of sound was 1236 ± 25 m/s and 1235 ± 25 m/s (1261 K); 1226 ± 25 m/s (1271 K); 1220 ± 24 m/s (1278 K).
